Consider four compounds from US12180145B2, “Fused cyclooctyne compounds and their use in metal-free click reactions” (Synaffix B.V., priority 2010, dated 2024).

A short description of assay [1]: Reaction kinetics of cycloaddition (SPAAC) with benzyl azide, followed by proton NMR. It counts as physicochemical. From the text:
In a preferred embodiment, a compound of the Formula (IIa), (IIb) and/or (IIc), or a conjugate thereof as described above, is reacted with a compound comprising a 1,3-dipole or a 1,3-(hetero)diene. For example the cycloaddition of (IIa) with benzyl azide in aqueous conditions proceeds rapidly and cleanly to the corresponding triazole adducts with excellent reaction kinetics (k=0.09-0.28 M^−1 s^−1, depending on the solvent). […] Consequently, a mixture of the exo- and endo-compounds according to the invention may be applied in some applications, avoiding the need for separation of the exo- and endo-compounds and even further simplifying the synthesis of the compounds according to the invention.
The reaction kinetics for cycloaddition with the prototypical azide benzyl azide were investigated. Thus, compound endo-IIa.2 was dissolved in a 3:1 mixture of CD3CN and D2O and mixed with benzyl azide at a final concentration of 18 mM. […] A significant solvent effect was noticed because the same cycloaddition reaction in a 1:2 mixture of CD3CN and D2O gave rate constants of 0.28 and 0.25 M^−1 s^−1 for endo-IIa.2 and exo-IIa.2, respectively.

For assay [2] the following is noted: prior art cyclooctynes; cited from earlier work.
The mark [3] stands for this setting: 3:1 mixture of CD3CN and D2O, final concentration 18 mM.

A value given as a limit tells only on which side of the number the result lay.

For the compound `OC[C@H]1[C@H]2CCC#CCC[C@@H]12` [endo-IIa.2, endo-9-(hydroxymethyl)bicyclo[6.1.0]non-4-yne], the “second-order rate constant of cycloaddition with benzyl azide” value came out at 0.28 M⁻¹ s⁻¹ in assay [1] (1:2 mixture of CD3CN and D2O); 0.12 M⁻¹ s⁻¹ in assay [1] (setting [3]).
As to `OCC1C2CCC#CCCC12` (stereo not drawn) [exo-IIa.2, 9-(hydroxymethyl)bicyclo[6.1.0]non-4-yne], the “second-order rate constant of cycloaddition with benzyl azide” value worked out at 0.25 M⁻¹ s⁻¹ in assay [1] (1:2 mixture of CD3CN and D2O); 0.10 M⁻¹ s⁻¹ in assay [1] (setting [3]).
Consider `O=C(O)CC1CCCCC#CC1(F)F` (stereo not drawn) [DIFO3], for which, in assay [2], the “reaction rate constant k of cycloaddition with azide” value is no more than 0.076 M⁻¹ s⁻¹.
`OC1Cc2ccccc2C#Cc2ccccc21` (stereo not drawn) [DIBO]: the “reaction rate constant k of cycloaddition with azide” value in assay [2] is 0.12 M⁻¹ s⁻¹.
